Experimental data as given in patent US6288091A, “Antiherpes virus compounds and methods for their preparation and use” (Boehringer Ingelheim Ltd., priority 1999, dated 2001).
Where two headings read alike, the source gives them in different places.

Assays:
HSV-1 strain F or KOS = test: Inhibition of herpes simplex virus (HSV-1) replication in cell culture (BHK-21 cells, glycoprotein C ELISA); assay type: cell-based
Outline: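 Replication readout: ELISA for HSV-1 late glycoprotein C (mAb C11, peroxidase-OPD, 450 nm) on glutaraldehyde-fixed cells. Monolayers (~50,000 cells/well) were infected with strain F or KOS (MOI 0.05 PFU/cell), then incubated 24 h at 37° with compound in 2% FBS α-MEM. EC50 derived from % inhibition.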

HCMV (strain AD169) = test: Inhibition of HCMV replication, ELISA assay (Hs-68 cells); assay type: cell-based, Human Cytomegalovirus (HCMV); details: read-out: ELISA CMV EC50
Outline: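 EC50 derived from % inhibition of viral replication, read as p28 late-protein ELISA signal (mAb UL99, peroxidase/OPD, 450 nm) on fixed cells. Read-out came 8 days post-infection at 37 °C in DMEM with 5% FBS plus compound, after 2 h adsorption of AD169 at MOI 0.01 PFU/cell onto near-confluent Hs-68 cells.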

[1] = Human alphaherpesvirus 1, BHK-21, Group 1 Table 2 entries
[2] = Human betaherpesvirus 5, AD169, Hs68, Group 1 Table 2 entries
[3] = Human alphaherpesvirus 1, BHK-21, Group 1 Table 1 entries
[4] = Human betaherpesvirus 5, AD169, Hs68, Group 1 Table 1 entries

Structure (SMILES) | EC50 (HSV-1 strain F or KOS; [1]) | EC50 (HCMV (strain AD169); [2]) | EC50 (HSV-1 strain F or KOS; [3]) | EC50 (HCMV (strain AD169); [4])
CC(C)(C)OC(=O)N(CCC(=O)Nc1ccc(-c2csc(N)n2)cc1)CC1CCCCC1 [Example 21] | 0.45 µM | 4.2 µM |  | 
CN(CC(=O)Nc1ccc(-c2csc(N)n2)cc1)C(=O)c1ccncc1 [Example 22] |  |  | 1.8 µM | 110 µM
Nc1nc(-c2ccc(NC(=O)CCNCC3CCCCC3)cc2)cs1 [Example 22] | 6 µM | 4.8 µM |  | 
CCCC(CCC)NCCC(=O)Nc1ccc(-c2csc(N)n2)cc1 [Example 23] | 6 µM | 4 µM |  | 
Nc1nc(-c2ccc(NC(=O)CN(Cc3ccccc3)C(=O)c3ccccc3)cc2)cs1 [Example 23] |  |  | 0.007 µM | 12 µM
Nc1nc(-c2ccc(NC(=O)CCN(CC3CCCCC3)C(=O)c3cccnc3)cc2)cs1 [Example 24] | 1.7 µM | 0.45 µM |  | 
Nc1nc(-c2ccc(NC(=O)CN(Cc3ccccc3)C(=O)c3ccc(F)cc3)cc2)cs1 [Example 24] |  |  | 0.002 µM | 14 µM
C[C@@H](NCCC(=O)Nc1ccc(-c2csc(N)n2)cc1)c1ccccc1 [Example 25] | 2.6 µM | 1 µM |  | 
Nc1nc(-c2ccc(NC(=O)CN(Cc3ccccc3)C(=O)Cc3ccccc3)cc2)cs1 [Example 26] |  |  | 0.05 µM | 1.8 µM
Nc1nc(-c2ccc(NC(=O)CN(Cc3ccccc3)C(=O)c3ccccn3)cc2)cs1 [Example 27] |  |  | 0.28 µM | 7 µM
Nc1nc(-c2ccc(NC(=O)CN(Cc3ccccc3)C(=O)c3cccnc3)cc2)cs1 [Example 28] |  |  | 0.13 µM | 4.6 µM
Nc1nc(-c2ccc(NC(=O)CN(Cc3ccccc3)C(=O)c3ccncc3)cc2)cs1 [Example 29] |  |  | 0.035 µM | 12 µM
Nc1nc(-c2ccc(NC(=O)CN(Cc3ccccc3)C(=O)c3cc[n+]([O-])cc3)cc2)cs1 [Example 30] |  |  | 0.43 µM | 77 µM
Nc1nc(-c2ccc(NC(=O)CN(Cc3ccccc3)C(=O)Cc3ccccn3)cc2)cs1 [Example 31] |  |  | 0.4 µM | 1.3 µM
Nc1nc(-c2ccc(NC(=O)CN(Cc3ccccc3)C(=O)c3cccs3)cc2)cs1 [Example 32] |  |  | 0.04 µM | 5.4 µM
Nc1nc(-c2ccc(NC(=O)CN(Cc3ccccc3)C(=O)c3cnccn3)cc2)cs1 [Example 33] |  |  | 0.17 µM | 28.2 µM

Structure (SMILES) | EC50 (HSV-1 strain F or KOS; [1]) | EC50 (HCMV (strain AD169); [2]) | EC50 (HSV-1 strain F or KOS; [3]) | EC50 (HCMV (strain AD169); [4])
Nc1nc(-c2ccc(NC(=O)CN(Cc3ccccc3)C(=O)C3CCCCC3)cc2)cs1 [Example 34] |  |  | 0.004 µM | 1 µM
Nc1nc(-c2ccc(NC(=O)CN(Cc3ccccc3)C(=O)C3CCCC3)cc2)cs1 [Example 36] |  |  | 0.005 µM | 2.8 µM
Nc1nc(-c2ccc(NC(=O)CN(Cc3ccccc3)C(=O)CC3CCCCC3)cc2)cs1 [Example 38] |  |  | 0.016 µM | 4 µM
Nc1nc(-c2ccc(NC(=O)CN(Cc3ccccc3)C(=O)CC3CCCC3)cc2)cs1 [Example 39] |  |  | 0.009 µM | 6.1 µM
CC(C)(C)C(=O)N(CC(=O)Nc1ccc(-c2csc(N)n2)cc1)Cc1ccccc1 [Example 41] |  |  | 0.036 µM | 14 µM
CC(C)(C)CC(=O)N(CC(=O)Nc1ccc(-c2csc(N)n2)cc1)Cc1ccccc1 [Example 42] |  |  | 0.002 µM | 6 µM
CC(C)C(=O)N(CC(=O)Nc1ccc(-c2csc(N)n2)cc1)Cc1ccccc1 [Example 43] |  |  | 0.13 µM | 25 µM
CC(=O)N(CC(=O)Nc1ccc(-c2csc(N)n2)cc1)Cc1ccccc1 [Example 44] |  |  | 0.75 µM | 16 µM
Nc1nc(-c2ccc(NC(=O)CN(Cc3ccccn3)C(=O)C3CCCCC3)cc2)cs1 [Example 47] |  |  | 0.013 µM | 19 µM
Nc1nc(-c2ccc(NC(=O)CN(Cc3cccnc3)C(=O)C3CCCCC3)cc2)cs1 [Example 48] |  |  | 0.04 µM | 5 µM
Nc1nc(-c2ccc(NC(=O)CN(Cc3ccncc3)C(=O)C3CCCCC3)cc2)cs1 [Example 49, N-{2-{{4-(2-amino-4-thiazolyl)phenyl}amino}-2-oxoethyl}-N-(4-pyridinylmethyl)cyclohexanecarboxamide] |  |  | 0.012 µM | 25 µM
Nc1nc(-c2ccc(NC(=O)CN(CCc3ccccn3)C(=O)C3CCCCC3)cc2)cs1 [Example 50] |  |  | 0.068 µM | 1.6 µM
Nc1nc(-c2ccc(NC(=O)CN(Cc3cccs3)C(=O)C3CCCCC3)cc2)cs1 [Example 51] |  |  | 0.002 µM | 6 µM
C[C@H](c1ccccc1)N(CC(=O)Nc1ccc(-c2csc(N)n2)cc1)C(=O)C1CCCCC1 [Example 52] |  |  | 0.013 µM | 1.3 µM
C[C@@H](c1ccccc1)N(CC(=O)Nc1ccc(-c2csc(N)n2)cc1)C(=O)C1CCCCC1 [Example 53] |  |  | 0.003 µM | 3.2 µM
